For data set [1] the following is noted: as compared to L-cysteine; cited from earlier work.
The test system of the next data set is oxidized lipid products. Briefly: Human clinical trial, scavenging of oxidized lipid products. In kind it is in vivo. An excerpt:
Moreover, the pharmacological effect of the composition of the instant invention as a replacement of the statin model was unexpected. […] Reason: the instant invention physiologically provides more rate-limiting L-cysteine available in the cell together with the other constituents of glutathione.

For `N[C@@H](CSSC[C@H](N)C(=O)O)C(=O)O` [L-cystine], the water solubility result in data set [1] was “water insoluble”.
For the molecule `CC(=O)N[C@@H](CS)C(=O)O` [N-acetylcysteine], the “scavenging of oxidized lipid products” value with oxidized lipid products is listed as 1%.
